{"source": "patent US20250144168A1", "about": "“LANTHIPEPTIDES AND METHODS OF USE” (priority 2022, published 2025)", "key": {"[1]": {"test_system": "human whole blood neutrophils and monocytes", "assay": "Whole blood phagocytosis (pHrodo) and CD marker flow cytometry", "type": "cell-based", "conditions": "N-terminal analogues, unlike full-length salivaricin 10", "description": "Neutrophils and monocytes display different activation states characterized by expression levels of cell surface CD marker in the oral cavity depending on the bacteria that they are interacting with. In health, neutrophils in the oral cavity are in a parainflammatory state, and with dysbiosis neutrophil phenotypes change towards a proinflammatory state. To determine if salivaricin 10 can prime neutrophils to augment pathogen elimination through phagocytosis, the surface expression of specific activation CD markers was assessed on human and murine neutrophils stimulated either with pHrodo (pH-sensitive, heat killed E. coli) alone or with salivaricin 10 and pHrodo. […]\nSONY SA3800 flow cytometer was used to acquire the data. […] To validate the gating strategy and antibody labeling FMO (fluorescence minus one) controls were used. […]\nData were analyzed by FlowJo software (v10.8; Tree Star). The mean fluorescence intensities (MFIs) for each CD marker were measured. Significant differences (P<0.05) were determined using GraphPad Prism 9 (GraphPad Software, Inc.). for the in-vitro human blood and mouse bone marrow assay paired Student's t-test (n=3) was used for the statistical analysis. […]"}, "[2]": {"test_system": "CXCL10 and TGM2 gene expression in M1 macrophages", "assay": "Macrophage gene expression assay (CXCL10, TGM2)", "type": "cell-based", "conditions": "40 μg/mL"}, "[3]": {"test_system": "isolated human neutrophils", "assay": "Neutrophil chemotaxis assay (Zigmond chamber)", "type": "cell-based", "procedure": "A suspension of 1×10^6 human PMNs in 100 μL HBSS containing 1% gelatin (Sigma-Aldrich) was placed on a 5% bovine serum albumin-coated 22×40 mm glass coverslip and incubated for 10 minutes at 37° C. Coverslips were then inverted onto a Zigmond chamber. Hundred microliters of HBSS and 100 μL HBSS containing N-formyl-methionyl-leucyl-phenylalanine (fMLP) 10^-6M or different concentrations of salivaricin 10 were added to the left and right chambers, respectively. PMN migration across the chamber was recorded with time-lapse of video microscopy at 20 second intervals for a period of 10 minutes using a Zeiss Motorized AxioVert (ZEISS). Captured images were analyzed using cell-tracking software (Retrac, v2.1.0.)."}, "M. luteus": {"test_system": "M. luteus", "assay": "Zone of inhibition of the isolated peptides (spot-on-lawn)", "type": "cell-based", "conditions": "lantibiotic-sensitive target M. luteus", "procedure": "Pure and homogenized SALI-10 colonies were selected to inoculate 10 ml of TSB supplemented with 2% yeast extract. The fermentation was carried out overnight at 37° C. with 5% CO2 for 18 h. The produced culture was used to inoculate 20 Petri dishes (100 mm), each containing 20 mL of TSA supplemented with 2% yeast extract and 0.2% CaCO3 and incubated as mentioned above (step 1). The agar cultures were then cut into small pieces and put into 250 mL centrifugation bottles. The bottles were incubated at −80° C. for 18 h and thawed immediately in a 70° C. water bath to produce liquid material. The liquid material was then collected by centrifugation, and the resultant supernatant was extracted with one volume of chloroform. The white precipitate from chloroform extraction was dried and resuspended in 2 ml of 35% acetonitrile in water (v/v). Centrifugation was performed to remove insoluble material to produce a clear peptide extract (we call it material A). The process was repeated with induction procedure by adding 50 μl of material A to 50 ml of TSB supplemented with yeast extract and inoculating this media with SALI-10 strain by repeating step 1 and generating 300 induced agar cultures instead of 20. The induced and chloroform extracted peptide was dried as in step 1 and resuspended in 20 ml of 35% ACN in water (v/v) supplemented with 0.1% TFA. The peptides preparation was processed via solid-phase extraction using C18 Sep-Pak® column (Waters, USA) prewashed with methanol and water. After loading the peptides sample, the column was washed with 10 mL of increasing methanol concentrations (10%, 30%, 50%, 70%). Active peptides were eluted with 95% methanol supplemented with 0.1% TFA. The peptides were finally purified using HPLC and C18-Reversed Phase chromatography as mentioned previously. Eluted fractions (1 ml per minute) were tested for antimicrobial activity against the sensitive strain M. luteus ATCC10240 using the spot-on-lawn method."}, "[4]": {"test_system": "saliva-derived multispecies biofilms", "assay": "Preformed saliva-derived multispecies biofilm, 16S rRNA gene sequencing", "type": "cell-based, human saliva bacteria", "description": "13. 16S rRNA Gene Sequencing […] 14. […] The UNOISE pipeline, available through […]11.0.667 and […]2.10.4, was used for sequence analysis. […] 5, a -[…] […] 1.0."}, "[5]": {"test_system": "saliva-derived multispecies biofilms", "assay": "Preformed saliva-derived multispecies biofilm, Live/Dead confocal microscopy", "type": "cell-based, human saliva bacteria", "conditions": "salivaricin 10 at 25 and 50 μg·ml^−1; nisin A at 50 μg·ml^−1; 20 min", "procedure": "Biofilms were formed ex-vivo using cell-free saliva as a medium and total salivary cell as inoculum (from healthy subjects). Twenty-four hours pre-formed multispecies biofilms grown anaerobically were treated with either nisin A (50 μg·ml^−1) or two concentrations of salivaricin 10 (25 and 50 μg·ml^−1) for a time exposure of 20 min. […] Salivaricin 10 penetrated saliva-derived multispecies biofilms and effectively killed the bacterial cells within (labeled with PI, lighter gray). No such effect was noticed with untreated (PBS) biofilms controls where the viable cells labeled mainly with Syto9, black. the ratio of live to dead cells decreased by a factor of 6 times compared to PBS treated conditions. […] This dose-dependent reduction in the oral biofilm thickness was reported previously for nisin A [27].\n12. Antimicrobial Activity Against Preformed Biofilms (Saliva-Derived De Novo Model)\nSaliva-derived biofilms were established in 24 well glass bottom sensoplates (Greiner Bio-One, Monroe, NC, USA) as mentioned previously. […] The mean Intensity of pixels for viable signals (Syto-9; live) and (PI; dead) were measured within biofilm areas of each image with the slices containing the highest respective signal intensity using custom Fiji (ImageJ). […] All quantifications and statistical calculations are based on 10-15 images and 5-10 stacks for each repeat (three repeats). […]"}}, "note": "Square brackets hold non-standard residues; d marks the D form. Ends that are not written are not given here. pT = C[C@@H](OP(=O)(O)O)[C@H](N)C(=O)O"}
{"compound": "NH2-GWFTAVQL-COOH (H-GWF[pT]AVQL-OH; SMILES CC(C)C[C@H](NC(=O)[C@H](CCC(N)=O)NC(=O)[C@@H](NC(=O)[C@H](C)NC(=O)[C@@H](NC(=O)[C@H](Cc1ccccc1)NC(=O)[C@H](Cc1c[nH]c2ccccc12)NC(=O)CN)[C@@H](C)OP(=O)(O)O)C(C)C)C(=O)O; listed as Streptococcus salivarius) [p(1-8) Sali10, chemically synthesized eight N-terminal unbridged residues of SrnA1 and SrnA2 with pThr4]", "values": [{"measurement": "effects on the neutrophils' CD marker expression", "setting": "[1]", "result": "Neither p (1-8) Sali10 (SEQ ID NO: 16) nor np (1-8) Sali10 showed effects"}, {"measurement": "gene expression of CXCL10 (M1 macrophage biomarker)", "setting": "[2]", "result": "downregulated"}, {"measurement": "gene expression of TGM2 (M2 macrophage biomarker) compared to M1 control cells", "setting": "[2]", "result": "upregulated"}, {"measurement": "neutrophil chemotaxis of the N-terminal tail analogues", "setting": "[3]; 40 μg/mL, compared with full-length salivaricin 10", "result": "very similar activity to the full-length salivaricin 10"}]}
{"compound": "GWFTAVQLTLAGRCGRWFTGSYECTTNNVKCG (cysteine pairing not given here; also: lanthionine modifications; listed as Streptococcus salivarius) [SrnA2, major lanthipeptide of salivaricin 10, tyrosine at position 22]", "values": [{"measurement": "antimicrobial activity (zone of inhibition) of the isolated peptide", "setting": "M. luteus", "result": "more extensive zone of inhibition"}]}
{"compound": "nisin A", "values": [{"measurement": "S. gordonii, S. parasanguinis levels in the biofilm", "setting": "[4]", "result": "strongly inhibited"}, {"measurement": "commensal species of the genera Veillonella, Streptococcus and Haemophilus in the biofilm", "setting": "[4]; salivaricin 10 at 25 μg and 50 μg", "result": "disrupted the indigenous oral biofilm, including beneficial commensals"}, {"measurement": "damage to biofilm architecture (confocal images)", "setting": "[5]", "result": "significant and critical damage to the biofilm architecture"}]}
{"compound": "CSCC[C@H](NC=O)C(=O)N[C@@H](CC(C)C)C(=O)N[C@@H](Cc1ccccc1)C(=O)O", "note": "[fMLP, N-formyl-methionyl-leucyl-phenylalanine, reference compound]", "values": [{"measurement": "neutrophil migration speed", "setting": "[3]; control peptide", "result": "~11", "unit": "μm/minute"}]}
{"compound": "GWFTAVQLTLAGRCGRWFTGSFECTTNNVKCG (cysteine pairing not given here; also: lanthionine modifications; listed as Streptococcus salivarius) [SrnA1, lanthipeptide of salivaricin 10, phenylalanine at position 22]", "values": [{"measurement": "antimicrobial activity (zone of inhibition) of the isolated peptide", "setting": "M. luteus", "result": "reduced"}]}
{"compound": "GWSTAVRLTVQGRCGWWFTHSYECTSPNVRCG (cysteine pairing not given here; also: lanthionine modifications; listed as Streptococcus salivarius) [SrnA4]", "values": [{"measurement": "antimicrobial activity (zone of inhibition) of the isolated peptide", "setting": "M. luteus", "result": "Reduced antimicrobial activity"}]}
